These results are taken from article PMC5473904, “Epigenetic and antitumor effects of platinum(IV)-octanoato conjugates” (Scientific Reports, 2017).

On the set-up of data set [1]: method as in PMID 25888926. The conditions noted are these: valproato complexes; cited from earlier work.
The test system of data set [2] is A2780cisR human ovarian carcinoma cells. More on the design: method as in PMID 25888926. Conditions: compared with Pt(IV)diOA value of Table 1; cited from earlier work.
In data set [3] the test system is MCF-7 human breast cancer cells. Also noted: method as in PMID 25888926. The conditions noted are these: compared with Pt(IV)diOA value of Table 1; cited from earlier work.
A short description of data set [4]: log P (octanol/water) by shake flask method. It is filed as physicochemical. The conditions noted are these: 0.2 M aqueous NaCl.
Description: To quantify the hydrophobicity of the platinum complexes, the shake-flask method was used to measure partition coefficients (log P) values for octanol/water.
To determine the partition coefficient (P) the shake flask method was used. Octanol-saturated water (OSW) and water-saturated octanol (WSO) were prepared using analytical grade octanol and 0.2 M aqueous NaCl solution (to suppress hydrolysis of the chlorido complexes). […] Mixing was done by vortexing for 30 min at room temperature to establish the partition equilibrium. To separate the phases, centrifugation was done at 3000 g for 5 min. The aqueous layer was carefully separated from the octanol layer for platinum analysis. Platinum was quantified from aliquots taken from the octanol-saturated aqueous samples before and after partition by ICP-MS.
Data set [5] has as its system mitochondrial membrane potential Δψ m in HCT-116 cells. Briefly: Mitochondrial membrane potential, TMRE staining and confocal microscopy. Type of data set: cell-based, human. Conditions: HCT-116, 1 µM, 5 h. The procedure: The loss of Δψ m represents an early event in the apoptosis cascade that precedes the release of pro-apoptotic factors such as cytochrome c and the activation of effector caspases.
HCT-116 cells were seeded on glass bottom dishes (P50G-0-30-F, MatTek Co., Ashland, USA) at the density 3 × 10^5 cells per dish, cultured in RPMI-1640 medium (without phenol red) and incubated at 37 °C in a humidified 5% CO2 atmosphere overnight. The cells were subsequently treated with the compounds (1 μM) for 5 h. After this period, cells were washed twice with PBS and resuspended in staining medium (without Pt compound), supplemented with Hoechst 33258 and tetramethylrhodamine, ethyl ester (TMRE) from multiparametric apoptosis assay kit (Cayman Chemical, Michigan, USA) according to the manufacturer’s protocol. After 20 min of staining, the staining medium was replaced by a fresh medium (without staining dye and platinum compound).
Images of living cells were acquired with a Leica TSC SP-5X laser scanning confocal microscope (Leica Microsystems, Mannheim, Germany) using an HCX PL APO lambda blue 63.0 × 1.20 water UV objective lens corrected with an appropriate beam path (resolution 1024 × 1024, frequency 100 Hz). […] Quantification of the mean signal intensity associated with single cells was performed using software ImageJ v1.47, U.S. National Institutes of Health, Bethesda, Maryland, USA.

Data set [6] has as its system HDAC enzymes in HCT-116 cells. In words: HDAC fluorimetric cellular activity assay. Type of data set: cell-based, human. The conditions noted are these: 1 µM. The procedure:
These epigenetic processes consist in downregulation of HDACs and yet other biochemical processes triggered by VPA released in cells by the reduction of the Pt(IV) prodrug. Moreover, it has also been shown[15] that non-branched MCFAs may act as HDAC inhibitors. […] HDAC activity was analyzed in HCT-116 cells and confirmed by an independent set of experiments on A2780 cells (data not shown) by using a commercial HDAC fluorimetric cellular activity kit as described in the section Materials and methods.
Figure 3 Activity of HDAC enzymes in HCT-116 cells treated with the compounds tested in the present work; their concentration was 1 µM except the concentration of free OA, which was 1 mM. […] The data represent a mean from three independent experiments, each performed in quadruplicate. The error bars are the SDs.
The activity of HDAC enzymes was analyzed in HCT-116 cells treated with compounds tested in the present work (1 µM). […] The activity of HDAC was analyzed using the HDAC fluorimetric cellular activity assay kit (Enzo Life Sciences; Farmingdale, NY) in the whole cells according to manufacturer’s instructions. […] The plates were scanned on a fluorescence reader Infinite 200 (TECAN) (360 nm excitation, 460 nm emission).

Molecules are shown by their SMILES.

`CCCC(CCC)C(=O)[O][Pt]([NH2])([NH2])([Cl])([Cl])[O]C(=O)C(CCC)CCC` [Pt(IV)diVPA, cis, cis, trans-[Pt(IV)(NH3)2Cl2(VPA)2]]: the log partition coefficient (logP) in data set [1] is given as 0.25. The half-inhibitory concentration (IC50) in data set [2] is 300 ± 100 nM; in data set [3], 900 ± 300 nM.

Turning to `CC(=O)[O][Pt]([NH2])([NH2])([Cl])([Cl])[O]C(C)=O` [Pt(IV)diAc, cis, cis, trans-[Pt(IV)(NH3)2Cl2(Ac)2]], the “log P” value in data set [4] is −1.85 ± 0.09. The “Reduction in the fraction of cells with an intact Δψ m relative to untreated control” value in data set [5] was “no reduction”. Moreover, the “Efficiency to inhibit HDAC activity” value in data set [6] was “very small”.

Usually logP stands for the decadic logarithm of the partition coefficient of the neutral form, usually between octanol and water. Broadly, the IC50 is the point on the concentration scale where inhibition reaches its midpoint. As a reminder, the log P is a log measure of how a compound divides between an organic and an aqueous phase. Read a low log P as a more hydrophilic compound.
